Measurements published in US20250381216A1, “PROPHYLACTIC DRUG AND THERAPEUTIC DRUG FOR DIABETES-ASSOCIATED DEMENTIA” (priority 2022, published 2025).

How the values were obtained:
[1] = system: diabetes-associated dementia model (STZ injected into the cerebral ventricles of mice); test: Morris water maze probe test (spatial memory) in mice given streptozotocin intracerebroventricularly; format: in vivo, C57BL/6 mice; settings: for Residence time in the quadrant where the platform was previously located: mean ± SE
Source text: (§1) Male C57BL/6 mice (20-22 g), 6 weeks old, were purchased from Japan SLC, Inc., and acclimated for one week. All mice (3-5 mice per cage) were maintained under specific pathogen-free conditions with a 12-hour light/dark cycle in a temperature and humidity-controlled room, with free access to food and water. Mouse diet (D12450B) was purchased from Research Diets, Inc. After the experiment, mice were anesthetized with 4% isoflurane vapor using a simple inhalation anesthesia device (NARCOBIT-E, Natsume Seisakusho Co., Ltd.) and euthanized by cardiac puncture for whole blood collection.
(§2) LPS (Pantoea agglomerans LPS mac0001, Macrophi Inc.), prepared and purified according to the fermentation culture method (PTL 2) developed by Soma et al., was used. LPS was administered orally by dissolving LPS in drinking water (sterilized distilled water) at a dose of 1 mg/kg body weight/day. The LPS dosage was based on previous studies (NPL 8, 9). Drinking water was replaced weekly, and LPS concentration was adjusted according to average body weight and water intake. The LPS used is a substance present in the environment, consumed to some extent in daily life, and has also been added to food and cosmetics. LPS, when orally fed, enhances the functionality of phagocytes (macrophages) in the peritoneal cavity and brain (NPL 8, 9). Activated phagocytes have the function of repairing damaged tissues in the body. LPS may be derived from plant symbiotic bacteria with food experience, such as Pantoea, Enterobacter, Xanthomonas, Acetobacteraceae, and Zymomonas, but the specific strain is not limited as long as it is LPS.
We used a method of directly administering STZ into the cerebral ventricles as a model of the diabetes-associated dementia that causes spatial memory deterioration without increasing blood glucose levels (NPL 7). STZ was purchased from Sigma-Aldrich Co. LLC. […] After surgery, mice were monitored daily for pain/discomfort and infection according to guidelines. […]

[2] = system: diabetes-associated dementia model (STZ injected into the cerebral ventricles of mice); test: Morris water maze training test (spatial learning) in mice given streptozotocin intracerebroventricularly; format: in vivo, C57BL/6 mice
Source text: as §1, §2
We used a method of directly administering STZ into the cerebral ventricles as a model of the diabetes-associated dementia that causes spatial memory deterioration without increasing blood glucose levels (NPL 7). STZ was purchased from Sigma-Aldrich Co. LLC. After anesthetizing with 4% isoflurane using a stereotaxic apparatus SR-5M-HT (Narishige Co., Ltd.), STZ (2.0 mg/mouse, dissolved in 5 μl saline) was injected singly into the right lateral ventricle using a microinjector IMS-20 and micromanipulator SMM-100 (Narishige Co., Ltd.). The stereotaxic coordinates were +0.3 mm anterior, +1.0 mm lateral (right), and +2.5 mm ventral from the intersection of the sagittal and coronal sutures. After suturing the skin, an appropriate amount of antibiotic ointment (20 mg/g chloramphenicol, 5 mg/g fradiomycin, 100,000 U/g nystatin, Daiichi Sankyo Healthcare Co., Ltd.) was applied to the wound. For non-STZ control mice, 5 μl of saline was injected into the right lateral ventricle. After surgery, mice were monitored daily for pain/discomfort and infection according to guidelines. 5 μL of 5% trypan blue (Nacalai Tesque, Inc.) was administered intracerebroventricularly to confirm proper needle placement.
For the prevention experiment of LPS oral administration against the diabetes-associated dementia, mice were given free access to LPS in drinking water (1 mg/kg body weight/day for 33 days until the end of the test) from one week before STZ administration until the end of the experiment. Cognitive assessment tests (Morris water maze test) were conducted 3 weeks after STZ administration (4 weeks after starting LPS oral intake). 17-19 mice were used for each group.
For the treatment experiment of LPS oral administration against the diabetes-associated dementia, cognitive assessment tests (Morris water maze test) were conducted 12 days after STZ administration to confirm cognitive function decline. From 20 days after STZ administration, mice were given free access to LPS in drinking water (1 mg/kg body weight/day for 25 days until the end of the test). Cognitive assessment tests (Morris water maze test) were conducted 40 days after STZ administration (day 20 of LPS oral intake).
The Morris water maze test consists of tests evaluating spatial learning ability (training test) and spatial memory ability (probe test). […]

[3] = training test starting 12 days after icv STZ 2.0 mg/mouse, before LPS treatment, mean ± SE
[4] = treatment experiment, training test starting 40 days after icv STZ, LPS 1 mg/kg body weight/day in drinking water from day 20 after STZ

SMILES: CN(N=O)C(=O)N[C@H]1C(O)O[C@H](CO)[C@@H](O)[C@@H]1O (mixture of isomers) [STZ, streptozotocin]
- Spatial memory ability (residence time in the target quadrant, FIG. 2) ([1]; prevention experiment, LPS 1 mg/kg body weight/day in drinking water from one week before icv STZ, probe test the day after training): significantly shorter residence time in the target quadrant compared to the Saline group
- Residence time in the quadrant where the platform was previously located ([1]; probe test 16 days after icv STZ 2.0 mg/mouse, before LPS treatment, 60-second test): 18.0 ± 2.83 s
- Residence time in the quadrant where the platform was previously located ([1]; treatment experiment, probe test 44 days after icv STZ, LPS 1 mg/kg body weight/day in drinking water from day 20 after STZ): 24.1 ± 8.73 s
- Spatial learning ability (platform travel time over 4 days of training, FIG. 1) ([2]; prevention experiment, LPS 1 mg/kg body weight/day in drinking water from one week before icv STZ, test three weeks after STZ): inhibited reduction in platform travel time compared to the Saline group
- Travel time (time required to reach the platform), training day 1 [2, 3]: 55.1 ± 2.14 s
- Travel time (time required to reach the platform), training day 2 [2, 3]: 43.8 ± 7.00 s
- Travel time (time required to reach the platform), training day 3 [2, 3]: 40.4 ± 7.09 s
- Travel time (time required to reach the platform), training day 4 [2, 3]: 33.3 ± 6.74 s
- Travel time (time required to reach the platform), training day 1 [2, 4]: 44.42 ± 3.81 s
- Travel time (time required to reach the platform), training day 2 [2, 4]: 37.25 ± 10.41 s
- Travel time (time required to reach the platform), training day 3 [2, 4]: 27.83 ± 7.71 s
- Travel time (time required to reach the platform), training day 4 [2, 4]: 35.75 ± 10.44 s
